Measurements from patent publication US20050026949A1, “Methods of therapeutic treatment using amounts of retinoids without regard to body weight” (Allergan, Inc., priority 2003, published 2005).

Experiments:
[1] = test system: patients with moderate to very severe plaque psoriasis; experiment: Open-label extension study of oral tazarotene (Example 4); assay type: in vivo, human
Procedure: Two multicenter, double-blind, placebo-controlled studies ware conducted to evaluate the efficacy and safety of oral tazarotene (4.5 mg once daily) in patients with moderate to very severe plaque psoriasis. […] Efficacy evaluations include overall lesional assessment (OLA), percent body surface area involvement, global response to treatment, plaque elevation, scaling, and erythema. OLA is graded on a 6-point scale (0=none, 1=minimal, 2=mild, 3=moderate, 4=severe, 5=very severe).

[2] = test system: AP1; experiment: AP1 antagonism
[3] = test system: patients treated for acne; experiment: Studies of orally administered tazarotene for acne: adverse events (Table 2); assay type: in vivo, human; conditions: combined data from Studies 1 and 2 (N = 223)
Procedure: Studies are conducted on orally administered tazarotene for the treatment of acne. Adverse events (side effects) are monitored.

[4] = test system: patients having nodulocystic acne; experiment: Two placebo-controlled dose-ranging safety studies of oral tazarotene (Example 5); assay type: in vivo, human; conditions: for incidence of joint disorder: placebo 0%; for incidence of arthralgia: placebo 6%; for incidence of myalgia: placebo 9%; for incidence of asthenia: placebo 13%; for incidence of dry skin: placebo 19%; for incidence of headache: placebo 28%; for incidence of cheilitis: placebo 31%; for depression: placebo 1 (2%); for emotional lability (all cases mild): placebo 2 (4%)
Procedure: Two placebo-controlled dose-ranging studies are conducted to evaluate the safety of oral tazarotene in patients having nodulocystic acne. In the first study, patients receive orally administered tazarotene at daily doses of 0.4 mg to 2.8 mg in 96 (71+25) patients (12 weeks treatment plus 12 weeks post-treatment). In the second study, daily doses of 0.75 mg to 6 mg tazarotene are administered to 181 patients (24 weeks treatment plus 12 weeks post-treatment).

[5] = 4.5 mg once daily, 12-week extension treatment period, both groups
[6] = 4.5 mg once daily, extension study

CCOC(=O)c1ccc(C#Cc2ccc3c(c2)C(C)(C)CCS3)nc1 [tazarotene]
incidence of arthralgia [1, 5]: 20% | incidence of cheilitis [1, 5]: 70% | incidence of dry skin [1, 5]: 25% | incidence of hypertriglyceridemia [1, 5]: 6% | patients with clinical success (2-grade reduction in OLA) ([1]; 4.5 mg once daily, end of the 12-week treatment period): 28% | changes in liver function test values or cholesterol levels [1, 6]: no clinically significant changes | serious adverse events [1, 6]: no serious adverse events considered related to the study treatment | patients with clinical success (2-grade reduction in OLA) ([1]; end of the 12-week post-treatment period): 16% | AP1 antagonism [2]: potent AP1 antagonist | Cheilitis [3]: 134 (60.1) NUMBER OF (%) OF PATIENTS | Conjunctivitis [3]: 0 (0.0) NUMBER OF (%) OF PATIENTS | Desquamation central face/Desquamation [3]: 1 (0.4) NUMBER OF (%) OF PATIENTS | Dry Skin [3]: 79 (35.4) NUMBER OF (%) OF PATIENTS | Dry nose [3]: 7 (3.1) NUMBER OF (%) OF PATIENTS | Epistaxis [3]: 6 (2.7) NUMBER OF (%) OF PATIENTS | Fingertip peeling/Desquamation [3]: 1 (0.4) NUMBER OF (%) OF PATIENTS | Headache [3]: 26 (11.7) NUMBER OF (%) OF PATIENTS | Irritation of eyes [3]: 0 (0.0) NUMBER OF (%) OF PATIENTS | Joint pain/Arthralgia [3]: 18 (8.1) NUMBER OF (%) OF PATIENTS | Peeling/Desquamation [3]: 1 (0.4) NUMBER OF (%) OF PATIENTS | Pruritus [3]: 10 (4.5) NUMBER OF (%) OF PATIENTS | Rash-dermatitis/Rash [3]: 7 (3.1) NUMBER OF (%) OF PATIENTS | Red Scaly face/Desquamation [3]: 1 (0.4) NUMBER OF (%) OF PATIENTS | Skin fragility/Skin disorder [3]: 1 (0.4) NUMBER OF (%) OF PATIENTS | changes in urinalysis, chemistry, or hematology measures (including liver function tests, triglycerides, total cholesterol, HDL cholesterol) ([4]; 0.4 mg to 6 mg daily): no consistent dose-related clinically significant changes | ligament calcification, osteophyte formation, or changes in serum bone alkaline phosphatase, serum amino terminal telopeptides, or bone density ([4]; 0.4 mg to 6 mg daily): not associated with any clinically significant | patients withdrawing due to adverse events ([4]; 0.75 mg): 2 patients | incidence of joint disorder ([4]; 2.8 mg, n=11): 27% | incidence of arthralgia ([4]; 2.8 mg, n=11): 9% | incidence of myalgia ([4]; 2.8 mg, n=11): 0% | incidence of asthenia ([4]; 2.8 mg, n=11): 0% | incidence of dry skin ([4]; 2.8 mg, n=11): 18% | incidence of headache ([4]; 2.8 mg, n=11): 9% | incidence of cheilitis ([4]; 2.8 mg, n=11): 64% | patients withdrawing due to adverse events ([4]; 3 mg): 2 patients | cheilitis, mild ([4]; 3 mg group): 25 patients | cheilitis, moderate ([4]; 3 mg group): 3 patients | cheilitis, severe ([4]; 3 mg group): 1 patient | dry skin, mild ([4]; 3 mg group): 11 patients | dry skin, moderate ([4]; 3 mg group): 2 patient | depression ([4]; 3 mg group (2 mild, 1 severe)): 3 (8%) patients (%) | emotional lability (all cases mild) ([4]; 3 mg group): 1 (3%) patient (%) | incidence of joint disorder ([4]; 3 mg, n=37): 14% | incidence of arthralgia ([4]; 3 mg, n=37): 8% | incidence of myalgia ([4]; 3 mg, n=37): 16% | incidence of asthenia ([4]; 3 mg, n=37): 19% | incidence of dry skin ([4]; 3 mg, n=37): 35% | incidence of headache ([4]; 3 mg, n=37): 19% | incidence of cheilitis ([4]; 3 mg, n=37): 78% | patients withdrawing due to adverse events ([4]; 6 mg): 1 patients | cheilitis, mild ([4]; 6 mg group): 27 patients | cheilitis, moderate ([4]; 6 mg group): 6 patients | cheilitis, severe ([4]; 6 mg group): 1 patient | dry skin, mild ([4]; 6 mg group): 17 patients | dry skin, moderate ([4]; 6 mg group): 1 patient | depression ([4]; 6 mg group): none | emotional lability (all cases mild) ([4]; 6 mg group): 5 (14%) patient (%) | incidence of joint disorder ([4]; 6 mg, n=36): 19% | incidence of arthralgia ([4]; 6 mg, n=36): 28% | incidence of myalgia ([4]; 6 mg, n=36): 25% | incidence of asthenia ([4]; 6 mg, n=36): 19% | incidence of dry skin ([4]; 6 mg, n=36): 50% | incidence of headache ([4]; 6 mg, n=36): 36% | incidence of cheilitis ([4]; 6 mg, n=36): 94% | patients withdrawing from either study due to adverse events ([4]; 7/277, all groups incl. placebo): 2.5% | dry skin, severe ([4]; all groups): No patient has severe dry skin
